{"source": "paper PMC7545998", "about": "“A snake toxin as a theranostic agent for the type 2 vasopressin receptor” (Theranostics, 2020)", "key": {"Sprague-Dawley rats": {"system": "Sprague-Dawley rats", "test": "Diuresis and urine osmolality with daily i.p. injection of 3 nmol/kg for 4 days", "format": "in vivo, rat", "conditions": "daily i.p. 3 nmol/kg; for Diuresis Average / Excretion Average / Osmolarity Average: N=5", "procedure": "We injected this dose daily for 4 days and measured urine volume and osmolality.\nSprague-Dawley rats are aged between 6 and 12 weeks, between 237 g and 545 g and were use up to 3 times. […] Urine was collected at various times, and centrifuged for 30 min at 20,800 g. Urine osmolality was determined with an osmometer (Knauer, Berlin, Germany). For the pharmacokinetic experiments, a catheter was implanted in the rat jugular vein five days before the experiment. Blood samples of 400 μl were taken at various times under heparin conditions. Blood was centrifuged at 2000 g for 5 min at 4 °C and plasma was frozen at -20 °C."}, "[1]": {"system": "porcine kidney epithelial cells LLC-pk1", "test": "Confocal imaging of endogenous V2R in LLC-pk1 cells", "format": "cell-based", "conditions": "3.4 µM, 30-min pre-incubation", "procedure": "In cells endogenously expressing V2R, such as porcine kidney epithelial cells LLC-pk1, labeling of V2R with AFDye-488-MQ1 and Cy5.5-MQ1 (100 nM) was performed with either fresh or PFA-fixed cells (Figures 7A and B). […] In the pathophysiological context, three renal cancer cell lines (CAKI-2, ACHN and A498 [38]) known to express V2R were tested. […] The presence of V2R, at the cell membrane level, fluctuated as a function of cell density and the number of cell divisions, whatever the cell line used. […] To our knowledge, this is the first specific ligand labeling of V2R in non-permeabilized cancer cells.\nFreshly dissociated CHO, LLC-PK1 or renal cancer cell lines expressing vasopressin receptors were seeded on 12-mm glass coverslips pre-coated with poly-ornithine, cultured for 48 h before incubation in DMEM, 0.2 mg/mL BSA, 25 mM HEPES, pH 7.4 for 1 h at 12°C or 30 min at 22 °C with fluorescent analogues in the absence or presence of non-fluorescent ligands (30-min pre-incubation). After 3 washes with cold PBS, the cells were finally fixed in 4% PFA overnight at 4 °C and mounted with Mowiol. The fluorescent cells were imaged using a Zeiss LSM510 Meta confocal microscope equipped with a ×63 (NA 1.4) oil immersion objective. For excitation, available laser rays were 488 and 633 nm and emission signals were collected in multitracking mode with appropriate band pass filters. […]"}, "[2]": {"system": "156 other GPCRs (including V1aR, V1bR and OTR)", "conditions": "at µM concentrations; cited from earlier work", "description": "Named mambaquaretin (MQ1), this peptide was isolated from mamba snake venom."}}}
{"substance": "mambaquaretin [MQ1]", "values": [{"measurement": "half-life of diuresis decrease", "setting": "Sprague-Dawley rats; day 1", "value": 1.6, "unit": "h"}, {"measurement": "Diuresis Average", "setting": "Sprague-Dawley rats; day 1, 24-h period", "value": 6.3, "unit": "mL/h/kg"}, {"measurement": "Excretion Average", "setting": "Sprague-Dawley rats; day 1, 24-h period", "value": 1919, "unit": "µOsm/h/kg"}, {"measurement": "Osmolarity Average", "setting": "Sprague-Dawley rats; day 1, 24-h period", "value": 328, "unit": "mOsm/kg H2O"}, {"measurement": "half-life of diuresis decrease", "setting": "Sprague-Dawley rats; day 2", "value": 1.3, "unit": "h"}, {"measurement": "Diuresis Average", "setting": "Sprague-Dawley rats; day 2, 24-h period", "value": 5.9, "unit": "mL/h/kg"}, {"measurement": "Excretion Average", "setting": "Sprague-Dawley rats; day 2, 24-h period", "value": 1820, "unit": "µOsm/h/kg"}, {"measurement": "Osmolarity Average", "setting": "Sprague-Dawley rats; day 2, 24-h period", "value": 317, "unit": "mOsm/kg H2O"}, {"measurement": "half-life of diuresis decrease", "setting": "Sprague-Dawley rats; day 3", "value": 1.3, "unit": "h"}, {"measurement": "Diuresis Average", "setting": "Sprague-Dawley rats; day 3, 24-h period", "value": 6.00, "unit": "mL/h/kg"}, {"measurement": "Excretion Average", "setting": "Sprague-Dawley rats; day 3, 24-h period", "value": 1805, "unit": "µOsm/h/kg"}, {"measurement": "Osmolarity Average", "setting": "Sprague-Dawley rats; day 3, 24-h period", "value": 313, "unit": "mOsm/kg H2O"}, {"measurement": "half-life of diuresis decrease", "setting": "Sprague-Dawley rats; day 4", "value": 1.6, "unit": "h"}, {"measurement": "Diuresis Average", "setting": "Sprague-Dawley rats; day 4, 24-h period", "value": 5.7, "unit": "mL/h/kg"}, {"measurement": "Excretion Average", "setting": "Sprague-Dawley rats; day 4, 24-h period", "value": 1940, "unit": "µOsm/h/kg"}, {"measurement": "Osmolarity Average", "setting": "Sprague-Dawley rats; day 4, 24-h period", "value": 326, "unit": "mOsm/kg H2O"}, {"measurement": "effect on labeling by AFDye-488-MQ1 and Cy5.5-MQ1", "setting": "[1]", "value": "inhibited the labeling"}, {"measurement": "affinity for 156 other GPCRs (including V1aR, V1bR and OTR)", "setting": "[2]", "value": "no affinity"}]}
